Experiments:
Format in all cases: physicochemical
[1] = Chemical stability at 150° C. by HPLC
Description: A stability study was carried out at 150° C. between compound 1 of form III and the compound 1 described in patent EP 880514. This chemical stability of compound 1 is studied using HPLC
(§1) The operating conditions of the HPLC method are the following: • column: Interchim UP3HDO-15XS, 150×4.6 mm,
(§2) • detection: 205 nm, • injection: 20 microliters, • temperature: 40° C., • solution injected: 0.5 mg·mL^−1 (acetonitrile)

[2] = Chemical stability at 100° C. by HPLC
Description: A stability study was carried out at 100° C. between variety I of compound 1 and the compound 1 described in patent EP 880514. The chemical stability of compound 1 is studied using HPLC with different scores.
as §1, §2

[3] = Biopharmaceutical Classification System (BCS) class
Excerpt: Compound 1 belongs to Class 2 of the Biopharmaceutical Classification System or BCS proposed by G. Amidon (cf. G. L. Amidon et al., “A theoretical basis for a biopharmaceutical drug classification: the correlation of in vitro drug dissolution and in vivo bioavailability”, Pharm. Res. 12 (1995) 413-420). Its absorption, and therefore its bioavailability, thus strongly depend on the dissolution rate of the pharmaceutical form administered.

[4] = Particle size distribution (Malvern Mastersizer S laser granulometer)
Description: • Wavelength: 1.54056 Cu, voltage 40 KV, intensity 40 mA • Measurement range: 3°-30°2 theta • Interval: 0.04°2 theta • Duration of the interval: 4s • Fixed slots: 1.6 mm • Kβ filter (Ni) • Without internal reference • EVA software (v 12.0) for data processing Smart Apex Bruker diffractometer, two-dimensional detector • SMART software for determination of the parameters and orientation of the crystal matrix • SAINT software for data integration and processing • WinGX software for determination of the space group and the structural resolution 6.1.2 DSC • Netzsch DSC 204F1 • Aluminium crucible and pierced lid • Atmosphere: Helium • Initial temperature: 20° C. • Final temperature: 200° C. • Temperature gradient: 5° C.·min^−1 6.1.3 IR • KBr pellet • Bruker IFS28 type spectrometer • Spectral range: 400-4000 cm^−1 6.1.4 NMR of the solid • Bruker Avance 500 MHz spectrometer • MAS (Magic Angle Spinning) 4 mm probe • Bruker XwinNMR software • VACP (Variable Amplitude Cross-Polarization) with MAS (11 kHz) and proton decoupling (spinal 64, 65 kHz) • External reference: Adamantane 6.1.5 Particle Size Distribution • Malvern Mastersizer S laser granulometer • Size of the sample: 30 to 50 mg • Dispersion medium: 0.50% (m/v) Nonidet in water • Mie theory with as refractive indices: particle RI=1.55; imaginary RI=1.00; dispersant RI=1.38 • Sonication time: 60 seconds • Sonication energy: 50 to 60 Hz • Recirculation time: 30 seconds at 2000 rpm^−1 • Obscuration: 15-25% 6.2 Characterization of the Examples 6.2.1 Examples 5 and 5b

[5] = Conversion experiments between the polymorphic forms; details: after heating, return to ambient temperature
Description: The applicant has carried out conversion experiments between the different polymorphic forms of compound 1 which have shown that form III is the form which is stable at a high temperature (T>145° C.). This significant property makes it possible, by heating under vacuum, to eliminate traces of solvent (Polymorphism in the Pharmaceutical Industry, Wiley 2006, Ed Hilfiker; Wiley, ISBN: 978-3-527-31146-0).

In the case of NS(=O)(=O)Oc1ccc2c3c(c(=O)oc2c1)CCCCC3 [Compound 1 Patent EP 880514, 6-oxo-6,7,8,9,10,11-hexahydrocyclohepta[c]chromen-3-yl sulphamate, reference compound], the “HPLC Purity” value ([1]; T0 (start of stability study at 150° C.)) is reported as 99.6%, the “HPLC Purity” value ([1]; T2 hours at 150° C.) is reported as 7.3% and the “HPLC Purity” value ([2]; T0) is reported as 99.6%. The “HPLC Purity” value ([2]; T1 day at 100° C.) was 99.1%, the “HPLC Purity” value ([2]; T2 days at 100° C.) was 98.8% and the “HPLC Purity” value ([2]; T3 days at 100° C.) was 98.7%. The “HPLC Purity” value ([2]; T7 days at 100° C.) was 98.0%.
With NS(=O)(=O)Oc1ccc2c3c(c(=O)oc2c1)CCCCC3 [Compound 1, 6-oxo-6,7,8,9,10,11-hexahydrocyclohepta[c]chromen-3-yl sulphamate] the “Biopharmaceutical Classification System (BCS) class” value [3] was “Class 2”.
For NS(=O)(=O)Oc1ccc2c3c(c(=O)oc2c1)CCCCC3 [Example 2-2], the “particle size distribution D10(%)” value [4] was 1.2 μm, the “particle size distribution D50(%)” value [4] was 5.2 μm and the “particle size distribution D90(%)” value [4] was 11.0 μm.
With NS(=O)(=O)Oc1ccc2c3c(c(=O)oc2c1)CCCCC3 [Example 3] the “particle size distribution D10(%)” value [4] was 0.6 μm, the “particle size distribution D50(%)” value [4] was 3.1 μm and the “particle size distribution D90(%)” value [4] was 13.7 μm.
With NS(=O)(=O)Oc1ccc2c3c(c(=O)oc2c1)CCCCC3 [Variety I of compound 1, 6-oxo-6,7,8,9,10,11-hexahydrocyclohepta[c]chromen-3-yl sulphamate] the “HPLC Purity” value ([2]; T0) was 99.6%, the “HPLC Purity” value ([2]; T1 day at 100° C.) was 99.6% and the “HPLC Purity” value ([2]; T2 days at 100° C.) was 99.7%. For the same molecule, the “HPLC Purity” value ([2]; T3 days at 100° C.) was 99.7% and the “HPLC Purity” value ([2]; T7 days at 100° C.) was 99.7%.
With NS(=O)(=O)Oc1ccc2c3c(c(=O)oc2c1)CCCCC3 [form III, 6-oxo-6,7,8,9,10,11-hexahydrocyclohepta[c]chromen-3-yl sulphamate] the “behaviour of the form on returning to ambient temperature” value [5] was “remains unchanged”, the “HPLC Purity” value ([1]; T0 (start of stability study at 150° C.), listed as Compound 1 of form III) was 99.4% and the “HPLC Purity” value ([1]; T2 hours at 150° C., listed as Compound 1 of form III) was 41.2%.
